Reference: ChEMBL document CHEMBL2062486, “HIV-1 Integrase Inhibitor-Inspired Antibacterials Targeting Isoprenoid Biosynthesis” (ACS Med Chem Lett, 2012)
Converted amounts (≈) assume the structure as drawn. The source made the active and inactive calls. The rule behind the calls is not given here.

Assays:
[1] = molecular target: T1, Farnesyl pyrophosphate synthase (Homo sapiens) (UniProt P14324); assay: Inhibition of FPPS
T1 sequence (whole entry): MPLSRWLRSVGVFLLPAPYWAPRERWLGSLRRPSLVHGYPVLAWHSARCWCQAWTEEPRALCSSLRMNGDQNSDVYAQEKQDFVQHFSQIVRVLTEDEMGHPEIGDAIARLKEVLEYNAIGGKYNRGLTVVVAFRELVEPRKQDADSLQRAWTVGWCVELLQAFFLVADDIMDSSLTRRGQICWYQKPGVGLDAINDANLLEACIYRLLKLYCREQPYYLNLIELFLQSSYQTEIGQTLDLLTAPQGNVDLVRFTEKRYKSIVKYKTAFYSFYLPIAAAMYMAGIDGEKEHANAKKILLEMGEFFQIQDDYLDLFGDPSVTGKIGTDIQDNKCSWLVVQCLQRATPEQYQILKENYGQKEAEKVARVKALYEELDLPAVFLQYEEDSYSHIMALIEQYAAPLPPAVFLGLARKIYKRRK

[2] = molecular target: T2, 4,4'-diapophytoene synthase (Staphylococcus aureus, UniProt A9JQL9); assay: Inhibition of Staphylococcus aureus His6-tagged CrtM expressed in Escherichia coli BL21(DE3) using Farnesyl pyrophosphate as substrate incubated for 30 mins prior to substrate addition by continuous spectrophotometric assay
T2 sequence (A9JQL9 whole entry): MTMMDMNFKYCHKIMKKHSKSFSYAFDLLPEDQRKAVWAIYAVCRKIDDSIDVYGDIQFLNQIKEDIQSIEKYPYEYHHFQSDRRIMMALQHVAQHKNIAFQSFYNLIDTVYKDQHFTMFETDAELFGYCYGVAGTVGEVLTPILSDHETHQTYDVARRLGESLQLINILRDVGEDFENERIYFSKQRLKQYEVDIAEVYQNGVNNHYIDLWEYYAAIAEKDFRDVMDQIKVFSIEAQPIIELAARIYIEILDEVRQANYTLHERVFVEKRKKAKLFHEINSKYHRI

[3] = Inhibition of Escherichia coli UPPS-mediated undecaprenyl pyrophosphate synthesis by continuous spectrophotometric assay
[4] = molecular target: T2, 4,4'-diapophytoene synthase; assay: Inhibition of Staphylococcus aureus isolate WT CrtM-mediated staphyloxanthin synthesis after 72 hrs by spectrophotometry
[5] = Inhibition of Staphylococcus aureus UPPS-mediated undecaprenyl pyrophosphate synthesis by continuous spectrophotometric assay
Escherichia coli [6] = assay: Antibacterial activity against Escherichia coli DH5alpha; type: functional, organism-based; conditions: DH5[alpha]
Bacillus anthracis = assay: Antibacterial activity against Bacillus anthracis str. Sterne; type: functional
Listeria monocytogenes = assay: Antibacterial activity against Listeria monocytogenes; type: functional
Enterococcus faecium = assay: Antibacterial activity against Enterococcus faecium U503; type: functional
[7] = Antibacterial activity against Streptococcus pyogenes M1; type: functional, Streptococcus pyogenes serotype M1
MCF7 = assay: Cytotoxicity against human MCF7 cells; type: cell-based
Escherichia coli [8] = assay: Antibacterial activity against Escherichia coli K12; type: functional, organism-based; conditions: K-12
Staphylococcus aureus = assay: Antibacterial activity against methicillin-resistant Staphylococcus aureus USA300; type: functional

SMILES	inhibition [1]	IC50 [2] [µM]	Ki [2] [µM]	IC50 [3] [µM]	IC50 [4] [µM]	IC50 [5] [µM]	Activity (Escherichia coli [6])	MIC90 (Bacillus anthracis) [µg/mL]	MIC90 (Listeria monocytogenes) [µg/mL]	MIC90 (Enterococcus faecium) [µg/mL]	MIC90 [7] [µg/mL]	IC50 (MCF7) [µM]	Activity (Escherichia coli [8])	MIC90 (Staphylococcus aureus) [µg/mL]	Ki [3] [µM]
O=C(CP(=O)(O)O)NCCCc1cccc(Oc2ccccc2)c1	inactive	–	–	–	–	–	–	–	–	–	–	–	–	–	–
O=C(/C=C(\O)C(=O)O)NCCCc1cccc(Oc2ccccc2)c1	inactive	24	0.25	2.2	4	–	–	–	–	–	–	–	–	–	–
CCCCCCCCCCOc1cccc(C(=O)/C=C(\O)C(=O)O)c1	inactive	67	–	1.9	–	0.73	inactive	0.5 (≈ 1.43 µM)	4 (≈ 11.5 µM)	4 (≈ 11.5 µM)	1 (≈ 2.87 µM)	30	inactive	–	–
O=P(O)(O)C(O)(Cc1cccc(-c2cccc3c2oc2ccccc23)c1)P(=O)(O)O	–	–	–	0.3	–	–	–	–	–	–	–	–	–	–	–
CCCCCCOc1cccc(CCCNC(=O)/C=C(\O)C(=O)O)c1	inactive	> 300	–	0.56	–	0.75	–	–	–	–	–	–	–	–	–
CCCCCCCCOc1ccc(C(=O)/C=C(\O)C(=O)O)cc1	inactive	> 300	–	0.5	–	2	inactive	0.5 (≈ 1.56 µM)	4 (≈ 12.5 µM)	4 (≈ 12.5 µM)	1 (≈ 3.12 µM)	30	inactive	0.25 (≈ 0.78 µM)	–
CCCCCCCCCCOc1cccc(Cn2ccc(O)c(C(=O)O)c2=O)c1	inactive	> 300	–	> 300	–	> 300	–	–	–	–	–	–	–	–	–
CCCCCCOc1cccc(Cn2ccc(O)c(C(=O)O)c2=O)c1	inactive	45.3	0.45	27	33	–	–	–	–	–	–	–	–	–	–
O=C(/C=C(\O)C(=O)O)NCCCc1cccc(-c2ccccc2)c1	inactive	24	–	0.24	–	1.8	–	–	–	–	–	–	–	–	0.12
